Legend:
Format in all cases: in vivo
[1] = system: Echinochloa crus-galli (ECHCG); experiment: Herbicidal pre-emergence action, section C (Table C3); settings: visual grading after ca. 3 weeks vs untreated controls; for pest or weed control at 80 g/ha / pest or weed control at 320 g/ha: Echinochloa crus-galli, pre-emergence, 504 h, read-out: pre-emergence activity against ECHCG in %; for pest or weed control at 80 g/ha: application rate 80 g/ha; for pre-emergence activity against ECHCG in % / pest or weed control at 320 g/ha: application rate 320 g/ha
How it was run: (§1)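 Pre-emergence greenhouse test: visual percent damage scored about 3 weeks after treatment, relative to untreated pots (100% = dead, 0% = no effect). Formulated compounds (WP or EC, plus 0.5% additive) were applied in 600 l water/ha to the covering soil over seeds sown in sandy loam.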

Setaria viridis (SETVI) = experiment: Herbicidal pre-emergence action, section C (Table C8); settings: visual grading after ca. 3 weeks; for pest or weed control at 80 g/ha / pest or weed control at 320 g/ha: Setaria viridis, pre-emergence, 504 h, read-out: pre-emergence activity against SETVI in %
How it was run: as §1

[2] = system: Amaranthus retroflexus (AMARE); experiment: Herbicidal pre-emergence action, section C (Table C11); settings: visual grading after ca. 3 weeks; for pest or weed control at 80 g/ha: application rate 80 g/ha
How it was run: as §1

[3] = system: Alopecurus myosuroides (ALOMY); experiment: Herbicidal post-emergence action, section E (Table E2); settings: application rate 320 g/ha, assessed visually after ca. 3 weeks; for pest or weed control at 320 g/ha: Alopecurus myosuroides, post-emergence, 504 h, read-out: post-emergence activity against ALOMY in %
Source text: (§2) Seeds of mono- and dicotyledonous weed plants and crop plants were sown, in plastic or organic planting pots, in sandy loam, covered with soil and grown in a greenhouse under controlled growth conditions. 2 to 3 weeks after sowing, the test plants were sprayed in the single-leaf stage. The compounds according to the invention, formulated in form of wettable powders (WP) or as emulsifiable concentrates (EC), were sprayed onto the green plant parts as aqueous suspension or emulsion, with the addition of 0.5% of an additive, at an application rate of 600 l of water/ha (converted). The test plants were placed in the greenhouse for ca. 3 weeks under optimum growth conditions, and then the effect of the preparations was assessed visually in comparison with untreated controls (herbicidal effect in percent (%): 100% effect=plants have died off, 0% effect=as control plants).

[4] = system: Polygonum convolvulus (POLCO); experiment: Herbicidal post-emergence action, section E (Table E7); settings: visual assessment ca. 3 weeks after spraying; for pest or weed control at 80 g/ha: application rate 80 g/ha
Source text: as §2

[5] = system: Triticum aestivum (TRZAS); experiment: Post-emergence effects on crop plants, section F (Table F2); settings: for percent crop plant damage (wheat, post-emergence) at 80 g/ha / percent crop plant damage (wheat, post-emergence) at 320 g/ha: Triticum aestivum, 504 h, read-out: post-emergence activity against TRZAS in %; for post-emergence activity against TRZAS in %: crop plant damage
How it was run: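 Percent damage was rated by eye roughly 3 weeks after treatment against untreated plants, where 0% = as control and 100% = died off. Spraying used WP or EC formulations plus 0.5% additive at 600 l water/ha, with rates of 320 g/ha or less. Plants were at the single-leaf stage, sown 2-3 weeks earlier in sandy loam under greenhouse conditions.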

[6] = system: Alopecurus myosuroides (ALOMY); experiment: Herbicidal pre-emergence action, section A (Table A2); settings: application rate 1280 g/ha, visual grading after ca. 3 weeks vs untreated controls; for pest or weed control at 1280 g/ha: Alopecurus myosuroides, pre-emergence, 504 h, read-out: pre-emergence activity against ALOMY in %
How it was run: (§3)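 Read-out is visual herbicidal effect in percent (100% = plants died, 0% = as control), graded ca. 3 weeks after treatment. Test compounds as WP or EC were applied to covering soil over sown seeds with 0.5% additive, 600 l water per hectare; greenhouse growth.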

[7] = system: Matricaria inodora (MATIN); experiment: Herbicidal pre-emergence action, section A (Table A6); settings: visual grading after ca. 3 weeks vs untreated controls
How it was run: as §3

Stellaria media (STEME) = experiment: Herbicidal pre-emergence action, section A (Table A9); settings: for pre-emergence activity against STEME in % / pest or weed control at 1280 g/ha: application rate 1280 g/ha; for pest or weed control at 1280 g/ha / pest or weed control at 320 g/ha: Stellaria media, 504 h, read-out: pre-emergence activity against STEME in %; for pest or weed control at 320 g/ha: application rate 320 g/ha
How it was run: as §3

Lolium rigidum (LOLRI) = experiment: Herbicidal post-emergence action, section B (Table B5); settings: application rate 1280 g/ha, visual rating about 3 weeks after treatment vs untreated controls
Method: Seeds of mono- and dicotyledonous weed plants were placed in plastic pots in sandy loam soil (doubly sown with in each case one species of mono- or dicotyledonous weed plants per pot), covered with soil and cultivated in a greenhouse under controlled growth conditions. 2 to 3 weeks after sowing, the test plants were treated at the one-leaf stage. The compounds of the invention, formulated in the form of wettable powders (WP) or as emulsion concentrates (EC), were applied onto the green parts of the plants as aqueous suspension or emulsion with addition of 0.5% additive at a water application rate of 600 liters per hectare (converted). After the test plants had been kept in the greenhouse under optimum growth conditions for about 3 weeks, the activity of the preparations was rated visually in comparison to untreated controls. For example, 100% activity=the plants have died, 0% activity=like control plants.

Veronica persica (VERPE) = experiment: Herbicidal post-emergence action, section B (Table B10); settings: visual rating about 3 weeks after treatment vs untreated controls; for pest or weed control at 320 g/ha: Veronica persica, post-emergence, 504 h, read-out: post-emergence activity against VERPE in %
How it was run: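 Scores are visual % activity relative to untreated plants (0% = like control, 100% = dead), taken about 3 weeks after spraying. Compounds, as WP or EC in water with 0.5% additive at 600 L/ha, went onto one-leaf-stage weeds grown from seed in sandy loam under greenhouse conditions.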

[8] = Tripleurospermum inodorum, pre-emergence, 504 h, application rate 1280 g/ha, read-out: pre-emergence activity against MATIN in %
[9] = Fallopia convolvulus, 504 h, read-out: post-emergence activity against POLCO in %
[10] = Amaranthus retroflexus, pre-emergence, 504 h, read-out: pre-emergence activity against AMARE in %

SMILES | pest or weed control at 80 g/ha [1] | pest or weed control at 80 g/ha (Setaria viridis (SETVI); application rate 80 g/ha) | pest or weed control at 320 g/ha [3] | pre-emergence activity against STEME in % (Stellaria media (STEME)) | pre-emergence activity against ECHCG in % [1] | pest or weed control at 1280 g/ha [6] | pest or weed control at 1280 g/ha [7, 8] | pest or weed control at 320 g/ha (Veronica persica (VERPE); application rate 320 g/ha) | pest or weed control at 80 g/ha [2, 10] | percent crop plant damage (wheat, post-emergence) at 320 g/ha ([5]; application rate 320 g/ha) | pest or weed control at 320 g/ha (Setaria viridis (SETVI); application rate 320 g/ha) | also measured
Fc1ccccc1-c1nc2c(cc1Br)SCN2 [Example I-001, 6-bromo-5-(2-fluorophenyl)-2,3-dihydro[1,3]thiazolo[4,5-b]pyridine] | 100% | 100% | 90% | – | – | – | – | – | – | – | – | pest or weed control at 320 g/ha ([2]; Amaranthus retroflexus, pre-emergence, 504 h, application rate 320 g/ha, read-out: pre-emergence activity against AMARE in %): 90%; pest or weed control at 320 g/ha ([4]; Fallopia convolvulus, 504 h, application rate 320 g/ha, read-out: post-emergence activity against POLCO in %): 90%; percent crop plant damage (wheat, post-emergence) at 80 g/ha ([5]; application rate 80 g/ha): 0%
COC(=O)CCC(=O)N1CSc2cc(Cl)c(-c3ccccc3F)nc21 [Example I-003] | – | – | – | 90% | 80% | – | – | – | – | – | – | pre-emergence activity against ALOMY in % [6]: 100%; pre-emergence activity against MATIN in % ([7]; application rate 320 g/ha): 90%; post-emergence activity against LOLRI in % (Lolium rigidum (LOLRI)): 90%; post-emergence activity against VERPE in % (Veronica persica (VERPE); application rate 320 g/ha): 100%; pre-emergence activity against SETVI in % (Setaria viridis (SETVI); application rate 320 g/ha): 100%; post-emergence activity against ALOMY in % [3]: 80%; post-emergence activity against TRZAS in % ([5]; application rate 320 g/ha): 0%
Cc1cc2c(nc1-c1ccccc1F)NCS2 [Example I-007, 5-(2-fluorophenyl)-6-methyl-2,3-dihydro[1,3]thiazolo[4,5-b]pyridine] | 100% | 100% | 90% | – | – | 100% | 90% | 90% | – | – | – | pest or weed control at 1280 g/ha (Stellaria media (STEME)): 90%; pest or weed control at 80 g/ha [4, 9]: 90%
BN1CSc2cc(Br)c(-c3ccccc3C)nc21 [Example I-011] | – | – | – | 100% | 100% | – | – | – | – | – | – | post-emergence activity against VERPE in % (Veronica persica (VERPE); application rate 1280 g/ha): 90%; pre-emergence activity against SETVI in % (Setaria viridis (SETVI); application rate 80 g/ha): 100%; post-emergence activity against POLCO in % ([4]; application rate 320 g/ha): 80%; post-emergence activity against TRZAS in % ([5]; application rate 80 g/ha): 0%
Clc1ccccc1-c1nc2c(cc1Br)SCN2 [Example I-041, 6-bromo-5-(2-chlorophenyl)-2,3-dihydro[1,3]thiazolo[4,5-b]pyridine] | – | 90% | – | – | – | 90% | 90% | 90% | 90% | 0% | – | pest or weed control at 1280 g/ha (Stellaria media (STEME)): 100%; pest or weed control at 1280 g/ha (Lolium rigidum (LOLRI); Lolium rigidum, post-emergence, 504 h, read-out: post-emergence activity against LOLRI in %): 90%; pest or weed control at 320 g/ha [1]: 100%
CCc1ccccc1-c1nc2c(cc1C)[S+]([O-])CN2 (centres unmarked) [Example I-047] | – | – | – | – | – | – | 90% | 90% | 90% | 0% | 100% | pest or weed control at 1280 g/ha (Stellaria media (STEME)): 90%
Cc1cc2c(nc1-c1ccccc1Cl)NCS2 [Example I-049, 5-(2-chlorophenyl)-6-methyl-2,3-dihydro[1,3]thiazolo[4,5-b]pyridine] | 100% | 100% | 80% | – | – | – | – | – | 80% | – | – | pest or weed control at 80 g/ha [4, 9]: 80%; percent crop plant damage (wheat, post-emergence) at 80 g/ha ([5]; application rate 80 g/ha): 10%
CC(=O)N1CSc2cc(Br)c(-c3ccccc3Cl)nc21 [Example I-055, 1-[6-bromo-5-(2-chlorophenyl)[1,3]thiazolo[4,5-b]pyridin-3(2H)-yl]ethanone] | – | – | – | – | – | 90% | 90% | – | 90% | 0% | 100% | pest or weed control at 320 g/ha (Stellaria media (STEME)): 90%; pest or weed control at 320 g/ha [1]: 100%
CC(C)C(=O)N1C[S+]([O-])c2cc(Br)c(-c3ccccc3)nc21 (centres unmarked) [Example I-067] | 90% | – | – | – | – | – | – | – | 80% | 0% | 100% | –
CCS(=O)(=O)N1C[S+]([O-])c2cc(C)c(-c3ccccc3C)nc21 (centres unmarked) [Example I-074] | 100% | – | 90% | – | – | 90% | – | 90% | 90% | – | 100% | pest or weed control at 320 g/ha ([7]; Tripleurospermum inodorum, pre-emergence, 504 h, application rate 320 g/ha, read-out: pre-emergence activity against MATIN in %): 90%; pest or weed control at 320 g/ha (Stellaria media (STEME)): 90%; percent crop plant damage (wheat, post-emergence) at 80 g/ha ([5]; application rate 80 g/ha): 0%
Cc1cc2c(nc1-c1ccccc1)N(C(=O)C1(C)CC(Cl)=NO1)CS2 (centres unmarked) [Example I-088] | – | – | – | 90% | 100% | – | – | – | – | – | – | pre-emergence activity against ALOMY in % [6]: 100%; pre-emergence activity against MATIN in % ([7]; application rate 1280 g/ha): 90%; post-emergence activity against LOLRI in % (Lolium rigidum (LOLRI)): 90%; post-emergence activity against VERPE in % (Veronica persica (VERPE); application rate 1280 g/ha): 90%; pre-emergence activity against SETVI in % (Setaria viridis (SETVI); application rate 80 g/ha): 100%; pre-emergence activity against AMARE in % ([2]; application rate 320 g/ha): 90%; post-emergence activity against POLCO in % ([4]; application rate 320 g/ha): 90%; post-emergence activity against TRZAS in % ([5]; application rate 320 g/ha): 20%
Cc1cc2c(nc1-c1cccc(C)c1F)NCS2 [Example I-113] | – | – | – | 90% | 100% | – | – | – | – | – | – | post-emergence activity against LOLRI in % (Lolium rigidum (LOLRI)): 90%; pre-emergence activity against SETVI in % (Setaria viridis (SETVI); application rate 320 g/ha): 100%; post-emergence activity against TRZAS in % ([5]; application rate 320 g/ha): 20%
CC1(C(=O)N2CSc3cc(Br)c(-c4ccccc4Cl)nc32)CC(Cl)=NO1 (centres unmarked) [Example I-141, [6-bromo-5-(2-chlorophenyl)[1,3]thiazolo[4,5-b]pyridin-3(2H)-yl](3-chloro-5-methyl-4,5-dihydro-1,2-oxazol-5-yl)methanone] | – | – | – | – | – | 90% | 90% | – | 100% | 0% | 100% | pest or weed control at 320 g/ha (Stellaria media (STEME)): 90%; pest or weed control at 320 g/ha [1]: 100%
